Assay results as given in patent publication US20010039291A1, “Compositions and methods of treatment for cancer or viral infections” (The Procter & Gamble Company, priority 1995, published 2001).
Values after ≈ are worked out from the molar mass of the structure shown.

Assays:
Rhinovirus, type A-1 = assay: In vitro screening for Rhinovirus; type: cell-based; conditions: cell line WI-38
From the text: The positive control was A-36683 of Abbot Company, (S,S)-1,2-bis(5-methoxy-2-benzimidazolyl)-1,2-ethanediol. […] (See Schleicher et al, Applied Microbiology, 23, No. 1, 113-116 (1972).

MX1 breast cells = assay: MTT cell viability test, breast tumor cells; type: cell-based; conditions: Homo sapiens, 120 h, about 5 day incubation, read-out: EC-50 Result
A549 lung tumor cells = assay: MTT cell viability test, lung tumor cells; type: cell-based; conditions: Homo sapiens, 120 h, about 5 day incubation, read-out: EC-50 Result
HT29 colon tumor cells = assay: MTT cell viability test, colon tumor cells; type: cell-based; conditions: Homo sapiens, HT-29, 120 h, about 5 day incubation, read-out: EC-50 Result
[1] = system: Human influenza virus, strain AT2/Taiwan/1/64; assay: Anti-viral evaluation with human influenza virus in mice; type: in vivo; conditions: oral lavage, observed 21 days after challenge
[2] = system: human tumor colony forming units; assay: In vitro human tumor colony forming units test; type: cell-based; conditions: for effectiveness against tumor types / tumors with ≦50% survival: continuous exposure
Method: Solid tumors removed by patients are minced into 2 to 5 mm fragments and immediately placed in McCoy's Medium 5A plus 10% heat inactivated newborn calf serum plus 1% penicillin/streptomycin. Within 4 hours, these solid tumors are mechanically disassociated with scissors, forced through No. 100 stainless steel mesh, through 25 gauge needles, and then washed with McCoy's medium as described above. Ascitic, pleural, pericardial fluids and bone marrow are obtained by standard techniques. The fluid or marrow is placed in sterile containers containing 10 units of preservative free heparin per ml. of malignant fluid or marrow. After centrifugation at 150×g for 10 minutes, the cells are harvested and washed with McCoy's medium plus 10% heat inactivated calf serum. The viability of cell suspensions is determined on a hemocytometer with trypan blue.
Cells to be cloned are suspended in 0.3% agar in enriched CMRL1066 supplemented with 15% heat inactivated horse serum, penicillin (100 units/ml), streptomycin (2 mg/ml), glutamine (2 mM), insulin (3 units/ml), asparagine (0.6 mg/ml), and HEPES buffer (2 mM). For the continuous exposure test each compound is added to the above mixture. Cells are placed in 35 mm petri dishes in a top layer of agar over an underlayer of agar to prevent growth of fibroblasts. Three plates are prepared for each data point. The plates are placed in a 37° C. incubator, and are removed on day 14 for counting of the number of colonies in each plate. The number of colonies (defined as 50 cells) formed in the 3 compound treated plates is compared to the number of colonies formed in the 3 control plates, and the percent colonies surviving at the concentration of compound can be estimated. Three positive control plates are used to determine survival rate. Orthosodium vanadate at 200 μg/ml is used as the positive control. If there is <30% colonies in the positive control when compared to the untreated control, the test is evaluated.

Row | Structure (SMILES) | therapeutic index (ratio of the toxic dose to the efficacious dose) (Rhinovirus, type A-1) | EC50 (MX1 breast cells) | EC50 (A549 lung tumor cells) | EC50 (HT29 colon tumor cells) | mice survived ([1]; 175 mg/kg dose, saline control no mice survived) | mice survived ([1]; 350 mg/kg dose) | effectiveness against tumors ([2]; 0.5 μg/ml, continuous exposure test) | tumors responding (effective/tested) ([2]; 0.5 μg/ml, single dose experiment) | effectiveness against tumor types ([2]; 5.0 μg/ml) | tumors with ≦50% survival ([2]; 5.0 μg/ml) | effectiveness against tumor types ([2]; 50.0 μg/ml) | tumors with ≦50% survival ([2]; 50.0 μg/ml) | effective concentration (Rhinovirus, type A-1)
1 | COc1ccc2nc([C@H](O)[C@@H](O)c3nc4ccc(OC)cc4[nH]3)[nH]c2c1 [A-36683, (S,S)-1,2-bis(5-methoxy-2-benzimidazolyl)-1,2-ethanediol, reference compound] | 1000-3200 | – | – | – | – | – | – | – | – | – | – | – | –
2 | COc1cccc2c1C(=O)c1c(O)c3c(c(O)c1C2=O)C[C@@](O)(C(=O)CO)C[C@@H]3O[C@H]1C[C@H](N)[C@H](O)[C@H](C)O1 [Adriamycin, reference compound] | – | 0.00078 µg/mL (≈ 0.00144 µM) | 0.00373 µg/mL (≈ 0.00686 µM) | 0.00639 µg/mL (≈ 0.0118 µM) | – | – | – | – | – | – | – | – | –
3 | CCCC1COC(Cn2cncn2)(c2ccc(Cl)cc2Cl)O1 (centres unmarked) [Propiconazole, 1-[2-(2,4-dichlorophenyl)4-propyl-1,3-dioxolan-2-ylmethyl]-1H-1,2,4-triazole] | 1-3 | 0.0284 µg/mL (≈ 0.083 µM) | 0.113 µg/mL (≈ 0.33 µM) | 0.0331 µg/mL (≈ 0.0967 µM) | 40% | 57% | not effective | 0/1 | effective against breast, head and neck, melanoma and ovarian cancers | 5 of 26 | effective against breast, colon, head and neck, lung (non-small cell), melanoma, ovarian, stomach, and uterine cancers | 18 of 25 | 32 µg/mL
